Laboratory results taken from doi:10.1101/2023.11.24.568596v1 (biorxiv, 2023).
Values belong to the compound of their own block, whether it stands above or below them.

Columns and labels:
Settings in all cases: binder
CDKL1 = CDKL1 (Homo sapiens, UniProt Q00532)
CK1d = CK1d (Homo sapiens, UniProt P48730)
CLK3 = CLK3 (Homo sapiens, UniProt P49761)
CaMK1g = CaMK1g (Homo sapiens, UniProt Q96NX5)
CaMK2b = CaMK2b (Homo sapiens, UniProt Q13554)
CaMKK2 = CaMKK2 (Homo sapiens, UniProt Q96RR4)
DAPK1 = DAPK1 (Homo sapiens, UniProt P53355)
MER = target: T1, MER (Homo sapiens, UniProt Q12866)
T1 sequence (Q12866 1-999): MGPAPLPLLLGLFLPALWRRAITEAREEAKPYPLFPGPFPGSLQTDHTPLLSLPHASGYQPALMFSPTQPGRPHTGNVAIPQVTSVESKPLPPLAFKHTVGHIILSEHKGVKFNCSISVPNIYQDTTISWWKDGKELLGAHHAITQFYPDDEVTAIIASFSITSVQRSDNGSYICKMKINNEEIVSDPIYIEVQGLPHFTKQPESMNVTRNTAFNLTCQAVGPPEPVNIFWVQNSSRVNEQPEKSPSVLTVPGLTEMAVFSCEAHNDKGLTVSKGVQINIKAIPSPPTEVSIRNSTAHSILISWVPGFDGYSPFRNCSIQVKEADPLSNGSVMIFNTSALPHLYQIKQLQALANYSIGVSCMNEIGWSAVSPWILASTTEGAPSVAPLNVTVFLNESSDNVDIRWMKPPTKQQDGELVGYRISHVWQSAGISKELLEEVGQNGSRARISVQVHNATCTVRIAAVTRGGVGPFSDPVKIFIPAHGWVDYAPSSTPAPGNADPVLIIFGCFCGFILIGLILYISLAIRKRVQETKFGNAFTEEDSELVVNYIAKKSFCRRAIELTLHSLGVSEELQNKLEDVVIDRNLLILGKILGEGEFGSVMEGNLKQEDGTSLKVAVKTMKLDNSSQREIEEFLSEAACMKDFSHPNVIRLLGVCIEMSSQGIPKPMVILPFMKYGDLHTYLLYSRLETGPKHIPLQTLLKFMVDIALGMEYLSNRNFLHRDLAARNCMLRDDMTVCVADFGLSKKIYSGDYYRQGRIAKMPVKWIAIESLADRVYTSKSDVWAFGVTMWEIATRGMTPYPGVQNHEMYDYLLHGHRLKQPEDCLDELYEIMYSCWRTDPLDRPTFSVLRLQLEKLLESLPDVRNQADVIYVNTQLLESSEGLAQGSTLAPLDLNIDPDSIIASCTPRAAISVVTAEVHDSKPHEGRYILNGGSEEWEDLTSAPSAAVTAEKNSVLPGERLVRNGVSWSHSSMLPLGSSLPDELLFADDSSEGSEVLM

SRC = SRC (Homo sapiens, UniProt P12931)
TLK1 = target: T2, TLK1 (Homo sapiens, UniProt Q9UKI8)
T2 sequence (Q9UKI8 1-766): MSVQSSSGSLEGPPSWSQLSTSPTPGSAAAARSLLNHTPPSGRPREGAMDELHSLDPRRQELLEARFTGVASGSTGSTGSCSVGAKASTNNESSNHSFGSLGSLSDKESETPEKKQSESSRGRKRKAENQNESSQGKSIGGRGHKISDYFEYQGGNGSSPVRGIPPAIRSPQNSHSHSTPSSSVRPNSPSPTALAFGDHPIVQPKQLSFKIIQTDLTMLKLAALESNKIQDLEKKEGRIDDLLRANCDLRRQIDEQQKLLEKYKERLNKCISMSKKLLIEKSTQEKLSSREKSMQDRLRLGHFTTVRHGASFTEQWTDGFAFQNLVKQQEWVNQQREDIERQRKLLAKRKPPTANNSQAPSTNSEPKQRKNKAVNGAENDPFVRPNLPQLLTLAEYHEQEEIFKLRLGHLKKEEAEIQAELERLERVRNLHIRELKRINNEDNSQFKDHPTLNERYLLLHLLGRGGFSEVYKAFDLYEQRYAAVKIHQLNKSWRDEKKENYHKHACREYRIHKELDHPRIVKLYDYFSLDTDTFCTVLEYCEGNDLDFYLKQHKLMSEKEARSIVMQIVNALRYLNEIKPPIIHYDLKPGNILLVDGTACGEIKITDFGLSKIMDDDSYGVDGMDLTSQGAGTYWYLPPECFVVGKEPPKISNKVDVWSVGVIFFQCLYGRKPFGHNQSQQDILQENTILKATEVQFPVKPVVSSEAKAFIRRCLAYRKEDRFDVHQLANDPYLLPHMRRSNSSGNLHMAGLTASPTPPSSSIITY

Sequence of CLK3 (P49761 whole entry): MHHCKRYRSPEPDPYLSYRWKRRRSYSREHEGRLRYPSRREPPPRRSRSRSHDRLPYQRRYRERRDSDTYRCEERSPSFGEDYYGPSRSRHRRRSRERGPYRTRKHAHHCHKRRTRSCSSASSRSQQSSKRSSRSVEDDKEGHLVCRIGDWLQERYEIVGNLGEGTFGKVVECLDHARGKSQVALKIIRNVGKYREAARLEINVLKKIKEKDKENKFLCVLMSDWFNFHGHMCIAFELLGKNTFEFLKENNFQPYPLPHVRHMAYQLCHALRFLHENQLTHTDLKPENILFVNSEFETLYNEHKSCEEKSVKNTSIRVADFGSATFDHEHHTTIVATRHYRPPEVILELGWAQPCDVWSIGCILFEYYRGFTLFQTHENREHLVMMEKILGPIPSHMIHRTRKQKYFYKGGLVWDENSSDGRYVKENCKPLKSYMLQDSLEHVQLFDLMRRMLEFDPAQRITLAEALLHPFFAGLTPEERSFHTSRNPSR
Sequence of CDKL1 (Q00532 whole entry): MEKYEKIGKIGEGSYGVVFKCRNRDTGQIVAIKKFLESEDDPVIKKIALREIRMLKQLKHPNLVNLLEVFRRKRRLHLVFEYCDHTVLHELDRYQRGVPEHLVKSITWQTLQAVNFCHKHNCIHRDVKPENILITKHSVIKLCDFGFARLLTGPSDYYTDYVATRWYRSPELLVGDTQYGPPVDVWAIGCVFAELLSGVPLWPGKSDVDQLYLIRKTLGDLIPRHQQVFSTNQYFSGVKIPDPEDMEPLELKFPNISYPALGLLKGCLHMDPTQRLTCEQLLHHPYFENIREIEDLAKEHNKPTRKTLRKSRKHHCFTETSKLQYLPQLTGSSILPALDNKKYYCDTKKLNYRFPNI
Sequence of CaMK2b (Q13554 whole entry): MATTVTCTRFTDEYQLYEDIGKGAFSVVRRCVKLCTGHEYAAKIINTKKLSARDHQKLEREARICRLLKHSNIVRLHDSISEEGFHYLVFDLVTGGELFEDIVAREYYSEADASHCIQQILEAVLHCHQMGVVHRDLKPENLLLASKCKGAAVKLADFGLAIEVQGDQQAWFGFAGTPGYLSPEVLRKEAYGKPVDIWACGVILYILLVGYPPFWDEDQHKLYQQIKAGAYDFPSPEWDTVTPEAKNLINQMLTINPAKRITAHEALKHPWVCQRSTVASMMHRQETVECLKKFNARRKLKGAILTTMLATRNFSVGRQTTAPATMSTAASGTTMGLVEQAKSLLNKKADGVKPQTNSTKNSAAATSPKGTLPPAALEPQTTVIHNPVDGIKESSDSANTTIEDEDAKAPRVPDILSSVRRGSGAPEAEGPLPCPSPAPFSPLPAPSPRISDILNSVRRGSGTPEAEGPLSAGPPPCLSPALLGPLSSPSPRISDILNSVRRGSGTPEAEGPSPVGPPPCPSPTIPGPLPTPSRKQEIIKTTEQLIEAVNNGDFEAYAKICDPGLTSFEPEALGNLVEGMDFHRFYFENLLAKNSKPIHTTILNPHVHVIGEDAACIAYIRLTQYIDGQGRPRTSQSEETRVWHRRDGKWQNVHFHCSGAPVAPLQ
Sequence of CaMKK2 (Q96RR4 whole entry): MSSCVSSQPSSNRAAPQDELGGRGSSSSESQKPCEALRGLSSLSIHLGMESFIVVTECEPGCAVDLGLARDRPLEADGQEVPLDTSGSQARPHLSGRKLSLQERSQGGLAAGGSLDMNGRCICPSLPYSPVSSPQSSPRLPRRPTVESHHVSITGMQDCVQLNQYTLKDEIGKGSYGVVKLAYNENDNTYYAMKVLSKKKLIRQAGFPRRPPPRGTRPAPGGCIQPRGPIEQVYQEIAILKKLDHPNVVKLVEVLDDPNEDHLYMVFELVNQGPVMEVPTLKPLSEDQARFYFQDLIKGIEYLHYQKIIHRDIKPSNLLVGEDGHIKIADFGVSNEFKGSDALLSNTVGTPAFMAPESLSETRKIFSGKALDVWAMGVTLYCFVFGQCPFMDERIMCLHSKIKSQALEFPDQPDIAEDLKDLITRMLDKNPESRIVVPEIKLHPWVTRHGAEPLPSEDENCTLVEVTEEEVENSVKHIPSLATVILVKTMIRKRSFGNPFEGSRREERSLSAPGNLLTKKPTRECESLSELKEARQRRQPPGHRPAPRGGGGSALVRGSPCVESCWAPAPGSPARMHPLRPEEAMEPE
Sequence of CK1d (P48730 whole entry): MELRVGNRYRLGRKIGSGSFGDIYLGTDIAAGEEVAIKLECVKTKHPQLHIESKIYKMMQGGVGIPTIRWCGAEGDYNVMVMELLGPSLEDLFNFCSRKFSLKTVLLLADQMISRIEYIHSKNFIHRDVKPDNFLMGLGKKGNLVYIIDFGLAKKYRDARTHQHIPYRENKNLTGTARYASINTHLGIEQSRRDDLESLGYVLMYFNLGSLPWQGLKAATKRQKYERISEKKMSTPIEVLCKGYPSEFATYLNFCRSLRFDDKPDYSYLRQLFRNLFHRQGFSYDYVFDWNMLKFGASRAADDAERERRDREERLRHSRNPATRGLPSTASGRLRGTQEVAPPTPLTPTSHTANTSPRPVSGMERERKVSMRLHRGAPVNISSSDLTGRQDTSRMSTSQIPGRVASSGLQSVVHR
Sequence of SRC (P12931 whole entry): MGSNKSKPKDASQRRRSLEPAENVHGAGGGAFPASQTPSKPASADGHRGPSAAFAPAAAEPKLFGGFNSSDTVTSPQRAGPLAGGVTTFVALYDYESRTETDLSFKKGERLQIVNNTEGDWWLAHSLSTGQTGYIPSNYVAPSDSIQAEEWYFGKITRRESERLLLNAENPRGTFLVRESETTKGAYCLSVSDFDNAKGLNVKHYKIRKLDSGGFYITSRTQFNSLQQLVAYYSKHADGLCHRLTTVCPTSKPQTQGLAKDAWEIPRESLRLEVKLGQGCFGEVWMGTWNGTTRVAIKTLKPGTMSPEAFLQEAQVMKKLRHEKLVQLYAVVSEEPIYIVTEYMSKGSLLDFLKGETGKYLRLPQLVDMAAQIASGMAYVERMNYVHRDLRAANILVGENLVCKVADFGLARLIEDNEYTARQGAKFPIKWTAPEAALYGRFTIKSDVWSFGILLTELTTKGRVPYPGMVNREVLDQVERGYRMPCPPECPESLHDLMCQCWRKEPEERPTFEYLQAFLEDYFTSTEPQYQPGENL
Sequence of DAPK1 (P53355 whole entry): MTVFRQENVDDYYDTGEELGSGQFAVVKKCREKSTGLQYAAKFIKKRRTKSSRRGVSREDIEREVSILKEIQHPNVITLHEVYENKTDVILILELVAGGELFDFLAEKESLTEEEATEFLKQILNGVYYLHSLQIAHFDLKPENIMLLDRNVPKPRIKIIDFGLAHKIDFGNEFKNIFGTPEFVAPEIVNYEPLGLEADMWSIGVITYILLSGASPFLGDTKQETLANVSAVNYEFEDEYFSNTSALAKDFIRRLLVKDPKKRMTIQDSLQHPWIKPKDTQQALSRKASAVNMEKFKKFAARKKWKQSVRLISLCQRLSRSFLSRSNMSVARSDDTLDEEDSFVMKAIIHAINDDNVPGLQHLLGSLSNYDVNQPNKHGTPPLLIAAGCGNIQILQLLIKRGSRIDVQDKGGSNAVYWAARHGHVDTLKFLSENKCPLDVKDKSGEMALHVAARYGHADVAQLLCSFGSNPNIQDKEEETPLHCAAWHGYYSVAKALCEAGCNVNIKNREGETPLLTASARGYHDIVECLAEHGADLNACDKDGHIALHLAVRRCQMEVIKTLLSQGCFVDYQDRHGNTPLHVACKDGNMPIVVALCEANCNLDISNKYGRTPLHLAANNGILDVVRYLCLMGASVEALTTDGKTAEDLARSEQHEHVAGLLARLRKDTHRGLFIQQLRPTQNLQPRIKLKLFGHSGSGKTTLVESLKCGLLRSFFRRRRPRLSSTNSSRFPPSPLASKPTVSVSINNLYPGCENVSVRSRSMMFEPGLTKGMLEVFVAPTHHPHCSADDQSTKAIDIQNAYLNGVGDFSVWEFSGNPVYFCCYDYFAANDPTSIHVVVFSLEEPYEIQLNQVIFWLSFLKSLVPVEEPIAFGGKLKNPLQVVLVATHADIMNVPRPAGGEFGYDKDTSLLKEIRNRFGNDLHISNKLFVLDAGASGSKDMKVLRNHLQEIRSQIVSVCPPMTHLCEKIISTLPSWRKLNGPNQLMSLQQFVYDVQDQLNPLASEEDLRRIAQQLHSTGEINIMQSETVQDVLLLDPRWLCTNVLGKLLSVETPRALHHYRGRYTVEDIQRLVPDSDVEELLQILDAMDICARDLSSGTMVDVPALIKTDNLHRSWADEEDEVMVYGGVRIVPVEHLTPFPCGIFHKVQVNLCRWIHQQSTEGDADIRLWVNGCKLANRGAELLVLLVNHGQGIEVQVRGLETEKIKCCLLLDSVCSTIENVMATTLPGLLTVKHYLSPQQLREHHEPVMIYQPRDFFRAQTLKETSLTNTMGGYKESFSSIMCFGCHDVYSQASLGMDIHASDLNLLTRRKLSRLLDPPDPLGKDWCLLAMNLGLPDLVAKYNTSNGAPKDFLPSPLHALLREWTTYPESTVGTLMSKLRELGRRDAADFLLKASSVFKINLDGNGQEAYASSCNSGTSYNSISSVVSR
Sequence of CaMK1g (Q96NX5 whole entry): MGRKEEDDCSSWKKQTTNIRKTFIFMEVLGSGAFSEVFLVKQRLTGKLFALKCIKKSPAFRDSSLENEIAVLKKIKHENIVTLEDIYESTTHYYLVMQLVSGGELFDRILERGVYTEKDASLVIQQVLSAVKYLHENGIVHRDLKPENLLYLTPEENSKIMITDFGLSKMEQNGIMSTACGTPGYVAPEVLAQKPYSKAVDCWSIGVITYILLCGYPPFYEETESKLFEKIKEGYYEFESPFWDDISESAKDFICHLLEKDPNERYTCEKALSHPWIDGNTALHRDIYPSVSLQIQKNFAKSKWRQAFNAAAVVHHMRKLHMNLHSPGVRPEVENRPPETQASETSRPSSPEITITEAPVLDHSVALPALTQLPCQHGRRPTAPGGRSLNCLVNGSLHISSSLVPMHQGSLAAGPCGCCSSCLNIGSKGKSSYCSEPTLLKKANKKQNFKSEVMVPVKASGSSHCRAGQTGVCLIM

- dTm 33 (CDKL1): 2.0 °C
- dTm 33 (CK1d): 2.2 °C
- dTm 33 (CLK3): -0.5 °C
- dTm 33 (CaMK1g): 6.7 °C
- dTm 33 (CaMK2b): -0.2 °C
- dTm 33 (CaMKK2): 4.3 °C
- dTm 33 (DAPK1): -1.1 °C
- dTm 33 (MER): 3.1 °C
- dTm 33 (SRC): 4.7 °C
- dTm 33 (TLK1): -0.8 °C
SMILES: Cc1cccc(-c2ccc(-c3cc4cnc(Nc5ccc(F)c(CO)c5)nc4n(CCCCN)c3=O)c(Cl)c2)n1 [compound 33, 8-(4-Aminobutyl)-6-(2-chloro-4-(6-methylpyridin-2-yl)phenyl)-2-((4-fluoro-3-(hydroxymethyl)phenyl)amino)pyrido[2,3-d]pyrimidin-7(8H)-one]

- dTm 34 (CDKL1): 1.5 °C
- dTm 34 (CK1d): 1.3 °C
- dTm 34 (CLK3): -1.0 °C
- dTm 34 (CaMK1g): 3.8 °C
- dTm 34 (CaMK2b): -0.8 °C
- dTm 34 (CaMKK2): 4.3 °C
- dTm 34 (DAPK1): -0.8 °C
- dTm 34 (MER): 0.1 °C
- dTm 34 (SRC): 3.1 °C
- dTm 34 (TLK1): -1.1 °C
SMILES: COc1ccc(O)c(Nc2ncc3cc(-c4ccc(-c5cccc(C)n5)cc4Cl)c(=O)n(CCCCN)c3n2)c1 [compound 34, 8-(4-Aminobutyl)-6-(2-chloro-4-(6-methylpyridin-2-yl)phenyl)-2-((2-hydroxy-5-methoxy-phenyl)amino)pyrido[2,3-d]pyrimidin-7(8H)-one]

- dTm 35 (CDKL1): 0.3 °C
- dTm 35 (CK1d): 1.8 °C
- dTm 35 (CLK3): -1.3 °C
- dTm 35 (CaMK1g): 7.1 °C
- dTm 35 (CaMK2b): -1.4 °C
- dTm 35 (CaMKK2): 6.9 °C
- dTm 35 (DAPK1): -2.1 °C
- dTm 35 (MER): 0.0 °C
- dTm 35 (SRC): 4.4 °C
- dTm 35 (TLK1): -2.5 °C
SMILES: COc1cc(N2CCOCC2)ccc1Nc1ncc2cc(-c3ccc(-c4cccc(C)n4)cc3Cl)c(=O)n(CCCCN)c2n1 [compound 35, 8-(4-Aminobutyl)-6-(2-chloro-4-(6-methylpyridin-2-yl)phenyl)-2-((2-methoxy-4-morpholino-phenyl)amino)pyrido[2,3-d]pyrimidin-7(8H)-one]

- dTm 36 (CDKL1): 0.8 °C
- dTm 36 (CK1d): 1.1 °C
- dTm 36 (CLK3): -0.7 °C
- dTm 36 (CaMK1g): 7.0 °C
- dTm 36 (CaMK2b): -0.6 °C
- dTm 36 (CaMKK2): 5.8 °C
- dTm 36 (DAPK1): -1.2 °C
- dTm 36 (MER): -0.2 °C
- dTm 36 (SRC): 4.1 °C
- dTm 36 (TLK1): -1.9 °C
SMILES: COc1cc(N2CCN(C)CC2)ccc1Nc1ncc2cc(-c3ccc(-c4cccc(C)n4)cc3Cl)c(=O)n(CCCCN)c2n1 [compound 36, 8-(4-Aminobutyl)-6-(2-chloro-4-(6-methylpyridin-2-yl)phenyl)-2-((2-methoxy-4-(4-methylpiperazin-1-yl)phenyl)amino)pyrido[2,3-d]pyrimidin-7(8H)-one]
